Tests used:
Test in all cases: relative viability (nuclei count vs DMSO), 5 days (fraction); higher = more cells survive
201T = system: 201T
In short: (§1)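 One day after seeding in 1536-well plates, lung cancer cell lines were dosed by pin tool. Dosing was either single-drug or a fixed anchor-drug dose plus five library-drug doses (not always all listed) in √10 steps. After 5 days, nuclei were stained in one fix-and-stain step and counted on 4× images, and relative viability is the nuclei count of treated wells over that of vehicle wells, given as the median of duplicate plates.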

ABC-1 = system: ABC-1
In short: as §1

COR-L23 = system: COR-L23
In short: as §1

EKVX = system: EKVX
In short: as §1

EPLC-272H = system: EPLC-272H
In short: as §1

LOU-NH91 = system: LOU-NH91
In short: as §1

NCI-H1563 = system: NCI-H1563
In short: as §1

NCI-H1650 = system: NCI-H1650
In short: as §1

NCI-H1734 = system: NCI-H1734
In short: as §1

NCI-H1793 = system: NCI-H1793
In short: as §1

NCI-H1993 = system: NCI-H1993
In short: as §1

NCI-H2023 = system: NCI-H2023
In short: as §1

NCI-H2085 = system: NCI-H2085
In short: as §1

NCI-H2170 = system: NCI-H2170
In short: as §1

NCI-H2347 = system: NCI-H2347
In short: as §1

NCI-H2405 = system: NCI-H2405
In short: as §1

NCI-H3122 = system: NCI-H3122
In short: as §1

NCI-H441 = system: NCI-H441
In short: as §1

NCI-H520 = system: NCI-H520
In short: as §1

NCI-H647 = system: NCI-H647
In short: as §1

PC-14 = system: PC-14
In short: as §1

RERF-LC-KJ = system: RERF-LC-KJ
In short: as §1

SW 900 = system: SW 900
In short: as §1

Structure (SMILES): CC(C)Oc1cc(Nc2nc(N[C@@H](C)c3ccc(F)cn3)ncc2Cl)n[nH]1 [AZ23] + Cc1nc(Nc2ncc(C(=O)Nc3c(C)cccc3Cl)s2)cc(N2CCN(CCO)CC2)n1 [Dasatinib] (partner 0.075 µM)
- relative viability (201T; first compound 0.01 µM): 0.506
- relative viability (201T; first compound 0.03162 µM): 0.614
- relative viability (201T; first compound 0.3162 µM): 0.569
- relative viability (ABC-1; first compound 0.01 µM): 0.583
- relative viability (ABC-1; first compound 0.03162 µM): 0.766
- relative viability (ABC-1; first compound 0.3162 µM): 0.546
- relative viability (COR-L23; first compound 0.01 µM): 0.485
- relative viability (COR-L23; first compound 0.03162 µM): 0.645
- relative viability (COR-L23; first compound 0.3162 µM): 0.504
- relative viability (EKVX; first compound 0.01 µM): 0.503
- relative viability (EKVX; first compound 0.03162 µM): 0.551
- relative viability (EKVX; first compound 0.3162 µM): 0.48
- relative viability (EPLC-272H; first compound 0.01 µM): 0.38
- relative viability (EPLC-272H; first compound 0.03162 µM): 0.305
- relative viability (EPLC-272H; first compound 0.3162 µM): 0.273
- relative viability (LOU-NH91; first compound 0.01 µM): 0.565
- relative viability (LOU-NH91; first compound 0.03162 µM): 0.589
- relative viability (LOU-NH91; first compound 0.3162 µM): 0.551
- relative viability (NCI-H1563; first compound 0.01 µM): 0.491
- relative viability (NCI-H1563; first compound 0.03162 µM): 0.533
- relative viability (NCI-H1563; first compound 0.3162 µM): 0.469
- relative viability (NCI-H1650; first compound 0.03162 µM): 0.33
- relative viability (NCI-H1650; first compound 0.3162 µM): 0.299
- relative viability (NCI-H1734; first compound 0.01 µM): 0.445
- relative viability (NCI-H1734; first compound 0.03162 µM): 0.454
- relative viability (NCI-H1734; first compound 0.3162 µM): 0.448
- relative viability (NCI-H1793; first compound 0.01 µM): 0.375
- relative viability (NCI-H1793; first compound 0.03162 µM): 0.404
- relative viability (NCI-H1793; first compound 0.3162 µM): 0.383
- relative viability (NCI-H1993; first compound 0.01 µM): 0.501
- relative viability (NCI-H1993; first compound 0.03162 µM): 0.613
- relative viability (NCI-H1993; first compound 0.3162 µM): 0.522
- relative viability (NCI-H2023; first compound 0.03162 µM): 0.627
- relative viability (NCI-H2023; first compound 0.3162 µM): 0.57
- relative viability (NCI-H2085; first compound 0.01 µM): 0.232
- relative viability (NCI-H2085; first compound 0.03162 µM): 0.214
- relative viability (NCI-H2085; first compound 0.3162 µM): 0.199
- relative viability (NCI-H2170; first compound 0.01 µM): 0.498
- relative viability (NCI-H2170; first compound 0.03162 µM): 0.618
- relative viability (NCI-H2170; first compound 0.3162 µM): 0.598
- relative viability (NCI-H2347; first compound 0.01 µM): 0.235
- relative viability (NCI-H2347; first compound 0.03162 µM): 0.298
- relative viability (NCI-H2347; first compound 0.3162 µM): 0.274
- relative viability (NCI-H2405; first compound 0.01 µM): 0.225
- relative viability (NCI-H2405; first compound 0.03162 µM): 0.23
- relative viability (NCI-H2405; first compound 0.3162 µM): 0.215
- relative viability (NCI-H3122; first compound 0.01 µM): 0.946
- relative viability (NCI-H3122; first compound 0.03162 µM): 0.831
- relative viability (NCI-H3122; first compound 0.3162 µM): 0.856
- relative viability (NCI-H441; first compound 0.01 µM): 0.683
- relative viability (NCI-H441; first compound 0.03162 µM): 0.745
- relative viability (NCI-H441; first compound 0.3162 µM): 0.699
- relative viability (NCI-H520; first compound 0.01 µM): 0.194
- relative viability (NCI-H520; first compound 0.03162 µM): 0.24
- relative viability (NCI-H520; first compound 0.3162 µM): 0.162
- relative viability (NCI-H647; first compound 0.01 µM): 0.174
- relative viability (NCI-H647; first compound 0.03162 µM): 0.215
- relative viability (NCI-H647; first compound 0.3162 µM): 0.17
- relative viability (PC-14; first compound 0.03162 µM): 0.273
- relative viability (PC-14; first compound 0.3162 µM): 0.246
- relative viability (RERF-LC-KJ; first compound 0.01 µM): 0.91
- relative viability (RERF-LC-KJ; first compound 0.03162 µM): 0.948
- relative viability (RERF-LC-KJ; first compound 0.3162 µM): 0.891
- relative viability (SW 900; first compound 0.01 µM): 0.385
- relative viability (SW 900; first compound 0.03162 µM): 0.593
- relative viability (SW 900; first compound 0.3162 µM): 0.541
